In PubChem BioAssay AID330 (DTP/NCI, 2004):
Where “and” joins values, the source holds several entries; their conditions need not be identical. Identical values can stand only once. Toxic doses and inconclusive results are not listed. How the source made its calls: active means survival T/C of 150% or more; inactive means T/C below 125% in these data.

Test system: P388 leukemia ip, CD2F1 mice, survival T/C
Experiment: NCI In Vivo Anticancer Drug Screen. Data for tumor model P388 Leukemia (intraperitoneal) in CD2F1 (CDF1) mice
Conditions: endpoint: median survival time, higher = longer survival
Procedure, shortened: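 Mice carrying the transplanted tumor received test compound or vehicle. Survival was recorded in each group, and the value is the treated-group measurement divided by that of the vehicle-treated control group.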

[1] = dose: 12.5 mg/kg/injection, schedule: Q01DX005 (ip), vehicle: Klucel (hydroxypropylcellulose) (HPC)
[2] = dose: 25.0 mg/kg/injection, schedule: Q01DX005 (ip), vehicle: Klucel (hydroxypropylcellulose) (HPC)
[3] = dose: 50.0 mg/kg/injection, schedule: Q01DX005 (ip), vehicle: Klucel (hydroxypropylcellulose) (HPC)
[4] = dose: 50.0 mg/kg/injection, schedule: Q01DX005 (ip), vehicle: saline with Tween-80
[5] = dose: 100.0 mg/kg/injection, schedule: Q01DX005 (ip), vehicle: saline with Tween-80
[6] = dose: 200.0 mg/kg/injection, schedule: Q01DX005 (ip), vehicle: saline with Tween-80
[7] = dose: 60.0 mg/kg/injection, schedule: Q01DX005 (ip), vehicle: saline with Tween-80
[8] = dose: 120.0 mg/kg/injection, schedule: Q01DX005 (ip), vehicle: saline with Tween-80
[9] = dose: 240.0 mg/kg/injection, schedule: Q01DX005 (ip), vehicle: saline with Tween-80
[10] = dose: 50.0 mg/kg/injection, schedule: Q01DX009 (ip), vehicle: saline
[11] = dose: 100.0 mg/kg/injection, schedule: Q01DX009 (ip), vehicle: saline
[12] = dose: 200.0 mg/kg/injection, schedule: Q01DX009 (ip), vehicle: saline
[13] = dose: 100.0 mg/kg/injection, schedule: Q01DX009 (ip), vehicle: saline with Tween-80
[14] = dose: 200.0 mg/kg/injection, schedule: Q01DX009 (ip), vehicle: saline with Tween-80

Measured: T/C

C[n+]1cc2ccccc2cc1CC(=S)[S-]
inactive: dose: 25.0 mg/kg/injection, schedule: Q01DX009 (ip), vehicle: Klucel (hydroxypropylcellulose) (HPC) 98 % of control | dose: 50.0 mg/kg/injection, schedule: Q01DX009 (ip), vehicle: Klucel (hydroxypropylcellulose) (HPC) 98 % of control | dose: 100.0 mg/kg/injection, schedule: Q01DX009 (ip), vehicle: Klucel (hydroxypropylcellulose) (HPC) 99 % of control | dose: 200.0 mg/kg/injection, schedule: Q01DX009 (ip), vehicle: Klucel (hydroxypropylcellulose) (HPC) 91 % of control

O=C(O)C1=C(O)CCN=C1
inactive: [1] 99 % of control | [2] 99 % of control | [3] 105 % of control

COc1ccc(C2COc3cc4occc4cc3C2=O)c(OC)c1OC (centres undefined)
inactive: dose: 11.25 mg/kg/injection, schedule: Q01DX005 (ip), vehicle: Klucel (hydroxypropylcellulose) (HPC) 99 % of control | dose: 22.5 mg/kg/injection, schedule: Q01DX005 (ip), vehicle: Klucel (hydroxypropylcellulose) (HPC) 97 % of control | dose: 45.0 mg/kg/injection, schedule: Q01DX005 (ip), vehicle: Klucel (hydroxypropylcellulose) (HPC) 95 % of control | dose: 90.0 mg/kg/injection, schedule: Q01DX005 (ip), vehicle: Klucel (hydroxypropylcellulose) (HPC) 97 % of control | dose: 180.0 mg/kg/injection, schedule: Q01DX005 (ip), vehicle: Klucel (hydroxypropylcellulose) (HPC) 99 % of control

COc1ccc(SSc2ccc(OC)n[n+]2[O-])[n+]([O-])n1
inactive: dose: 10.0 mg/kg/injection, schedule: Q01DX001 (ip), vehicle: Klucel (hydroxypropylcellulose) (HPC) 103 % of control | dose: 200.0 mg/kg/injection, schedule: Q01DX001 (ip), vehicle: Klucel (hydroxypropylcellulose) (HPC) 111 % of control

CCN(SSN(CC)S(=O)(=O)c1ccc(C)cc1)S(=O)(=O)c1ccc(C)cc1
inactive: [4] 106 % of control | [5] 107 % of control | [6] 110 % of control

COc1ccc(C(=O)O[C@H]2CC[C@@]3(C)[C@@H]4CC[C@H]5[C@]6(O)C[C@H](O)[C@@]7(O)[C@@H](CN8C[C@@H](C)CC[C@H]8[C@@]7(C)O)[C@]6(O)C[C@@]53OC24O)cc1OC
inactive: dose: 3.12 mg/kg/injection, schedule: Q01DX005 (ip), vehicle: saline 95 % of control | dose: 6.25 mg/kg/injection, schedule: Q01DX005 (ip), vehicle: saline 95 % of control | dose: 12.5 mg/kg/injection, schedule: Q01DX005 (ip), vehicle: saline 97 % of control

O=NNc1ncc([N+](=O)[O-])s1
inactive: dose: 3.12 mg/kg/injection, schedule: Q01DX009 (ip), vehicle: water 103 % of control | dose: 6.25 mg/kg/injection, schedule: Q01DX009 (ip), vehicle: water 97 % of control | dose: 12.5 mg/kg/injection, schedule: Q01DX009 (ip), vehicle: water 94 % of control | dose: 25.0 mg/kg/injection, schedule: Q01DX009 (ip), vehicle: water 100 % of control and 96 % of control | dose: 50.0 mg/kg/injection, schedule: Q01DX009 (ip), vehicle: water 100 % of control and 97 % of control | dose: 100.0 mg/kg/injection, schedule: Q01DX009 (ip), vehicle: water 101 % of control | dose: 200.0 mg/kg/injection, schedule: Q01DX009 (ip), vehicle: water 105 % of control

NNC(=O)c1nnc(N)o1
inactive: [7] 106 % of control | [8] 106 % of control | [9] 95 % of control

CC1=CC2ON=C(c3c(C)cc(C)cc3C)N2N(C(=O)c2ccccc2)C=C1 (centres undefined)
inactive: [10] 102 % of control | [11] 93 % of control | [12] 93 % of control

O=C(NO)C(O)C(O)C(O)CO (centres undefined)
inactive: [10] 101 % of control | [11] 104 % of control | [12] 104 % of control

CCCCCCCC/C=C\CCCCCCCC[N+]1([O-])CCOCC1
inactive: [10] 102 % of control | [11] 116 % of control

O=[N+]([O-])c1ccc(O)c(/C=N\NS(=O)(=O)c2ccc(Cl)cc2)c1
inactive: [4] 108 % of control | [5] 100 % of control

CCN(CC)C1CS(=O)(=O)OC(c2ccccc2)=C1C (centres undefined)
inactive: [4] 100 % of control | [5] 102 % of control | [6] 100 % of control

Nc1ccc(S(=O)(=O)n2c(=O)oc3cc(Cl)ccc32)cc1
inactive: [1] 100 % of control | [2] 93 % of control | [3] 102 % of control and 91 % of control

COc1cc2ccc(/C(C)=N/OC(C)=O)cc2cc1OC
inactive: [13] 95 % of control | [14] 90 % of control | dose: 400.0 mg/kg/injection, schedule: Q01DX009 (ip), vehicle: saline with Tween-80 90 % of control

CC(=O)NC1C(Nc2ccc(S(=O)(=O)Nc3ncccn3)cc2)OC(CO)C(O)C1O (centres undefined)
inactive: dose: 50.0 mg/kg/injection, schedule: Q01DX005 (ip), vehicle: saline 106 % of control | dose: 100.0 mg/kg/injection, schedule: Q01DX005 (ip), vehicle: saline 99 % of control | dose: 200.0 mg/kg/injection, schedule: Q01DX005 (ip), vehicle: saline 101 % of control

CC(C)c1c(C[N+](C)([O-])C(C)Cc2ccccc2)n(C)n(-c2ccccc2)c1=O (centres undefined)
inactive: [7] 106 % of control | [8] 102 % of control | [9] 100 % of control

COc1ccc(Cc2cc3c(cc2OCC(=O)O)OCO3)cc1
inactive: [4] 97 % of control | [5] 100 % of control | [6] 93 % of control

O=C(O)CNC(=O)NC(Cc1ccccc1)C(=O)O (centres undefined)
inactive: [4] 105 % of control | [5] 105 % of control | [6] 93 % of control

O=C(Cn1nnc2ccccc21)N1CCN(c2ccccc2)CC1
inactive: [7] 90 % of control | [8] 87 % of control

CCOC(=O)c1ccc(NC(=O)O/N=C/c2ccncc2)cc1
inactive: dose: 6.25 mg/kg/injection, schedule: Q01DX009 (ip), vehicle: saline with Tween-80 88 % of control | dose: 12.5 mg/kg/injection, schedule: Q01DX009 (ip), vehicle: saline with Tween-80 112 % of control | dose: 25.0 mg/kg/injection, schedule: Q01DX009 (ip), vehicle: saline with Tween-80 88 % of control | dose: 50.0 mg/kg/injection, schedule: Q01DX009 (ip), vehicle: saline with Tween-80 93 % of control | [13] 94 % of control | [14] 90 % of control

CCc1ccc(O)c(CN2CCN(Cc3cc(CC)ccc3O)CC2)c1
inactive: dose: 15.0 mg/kg/injection, schedule: Q01DX005 (ip), vehicle: saline with Tween-80 89 % of control | dose: 30.0 mg/kg/injection, schedule: Q01DX005 (ip), vehicle: saline with Tween-80 86 % of control

O=C1/C(=C/c2ccc3c(c2)OCO3)SC(=S)N1c1ccc(Cl)c(Cl)c1
inactive: [3] 103 % of control | dose: 100.0 mg/kg/injection, schedule: Q01DX005 (ip), vehicle: Klucel (hydroxypropylcellulose) (HPC) 100 % of control

CN(C)C12CCCCCCC1S(=O)(=O)C2 (centres undefined)
inactive: dose: 25.0 mg/kg/injection, schedule: Q04DX002 (ip), vehicle: saline with Tween-80 98 % of control | dose: 50.0 mg/kg/injection, schedule: Q04DX002 (ip), vehicle: saline with Tween-80 98 % of control | dose: 100.0 mg/kg/injection, schedule: Q04DX002 (ip), vehicle: saline with Tween-80 102 % of control and 96 % of control

OCC12OCC(C=CC1O)O2 (centres undefined)
inactive: dose: 60.0 mg/kg/injection, schedule: Q01DX005 (ip), vehicle: saline 99 % of control | dose: 120.0 mg/kg/injection, schedule: Q01DX005 (ip), vehicle: saline 91 % of control | dose: 240.0 mg/kg/injection, schedule: Q01DX005 (ip), vehicle: saline 98 % of control
